In the experiment the target is T1, human PAH with the R408W mutation (A375 R408W cells) (Homo sapiens, UniProt P00439, R408W).
T1 construct: expressed in transfected cells
T1 sequence (P00439 1-452 R408W): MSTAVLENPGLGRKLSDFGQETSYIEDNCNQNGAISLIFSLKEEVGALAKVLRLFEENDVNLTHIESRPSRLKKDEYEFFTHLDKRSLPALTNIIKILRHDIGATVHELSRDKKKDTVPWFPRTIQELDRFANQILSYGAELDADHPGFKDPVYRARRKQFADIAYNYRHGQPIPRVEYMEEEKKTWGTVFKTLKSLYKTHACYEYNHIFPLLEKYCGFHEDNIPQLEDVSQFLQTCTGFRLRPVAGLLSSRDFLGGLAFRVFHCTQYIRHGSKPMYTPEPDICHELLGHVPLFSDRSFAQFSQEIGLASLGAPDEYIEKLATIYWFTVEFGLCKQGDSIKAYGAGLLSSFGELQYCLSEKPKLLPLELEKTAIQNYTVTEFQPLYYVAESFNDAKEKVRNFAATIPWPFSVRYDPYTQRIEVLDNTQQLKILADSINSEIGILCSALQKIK
Briefly: Cell Based Phenylalanine Flux Assay. The settings on record: 24 hrs with compound, then 20 μM sepiapterin and 800 μM 13C9,15N-Phenylalanine for 4 hours, 13C-Tyrosine by LC-MS, average where tested multiple times. An outline of the steps:
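A375 cells stably expressing human PAH R408W treated 24 h at 37° C with a 10-point 2-fold dose curve in duplicate, 0.5% DMSO. Then 20 μM sepiapterin and 800 μM 13C9,15N-Phe added for 4 h; 13C-Tyr in media measured by LC-MS to give AC50.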

The mark [1] stands for this setting: A375 cells expressing R408W PAH.

Some results are limits rather than exact numbers.

The values that follow come from patent publication US20250171437A1 (Agios Pharmaceuticals,Inc., priority 2022, published 2025).

In general, AC50 refers to the concentration giving half of the maximal activity seen. Turning to `O=C1CN(CCc2ccc3c(C(=O)N4CCc5[nH]cnc5C4c4nc5cc(F)ccc5o4)cnn3c2)CCN1` (centres unmarked), under setting [1], the AC50 fell in the range of 1000 to 5000 nM.
`CC(C)(O)c1cc(C(=O)N2CCc3[nH]cnc3C2c2nc3ccc(F)cc3o2)no1` (centres unmarked): the AC50 under setting [1] was not below 5000 nM.
With `CC(C)(O)c1nc(Br)c(C(=O)N2CCc3[nH]cnc3[C@@H]2c2nc3ccc(F)cc3o2)o1` [Example 250, (R)-(4-bromo-2-(2-hydroxypropan-2-yl)oxazol-5-yl)(4-(6-fluorobenzo[d]oxazol-2-yl)-6,7-dihydro-1H-imidazo[4,5-c]pyridin-5(4H)-yl)methanone], for the setting “A375 R408W cells”, the AC50 was not below 5000 nM.
The same measure, in the same setting: as for `Cc1c(F)ccc2oc([C@@H]3c4nc[nH]c4CCN3C(=O)c3ocnc3C(F)F)nc12` [Example 722, (S)-(4-(difluoromethyl)oxazol-5-yl)(4-(5-fluoro-4-methylbenzo[d]oxazol-2-yl)-6,7-dihydro-1H-imidazo[4,5-c]pyridin-5(4H)-yl)methanone], the figure is not above 500 nM; as for `O=C(c1ccnn1C(F)F)N1CCc2[nH]cnc2[C@H]1c1nc2cc(F)ccc2o1` [Example 93, (S)-(1-(difluoromethyl)-1H-pyrazol-5-yl)(4-(5-fluorobenzo[d]oxazol-2-yl)-6,7-dihydro-1H-imidazo[4,5-c]pyridin-5(4H)-yl)methanone], 500 to 1000 nM.
Consider `O=C(c1ocnc1C(F)F)N1CCc2[nH]cnc2[C@H]1c1nc2cc(F)c(F)cc2o1` [Example 295, (S)-(4-(5,6-difluorobenzo[d]oxazol-2-yl)-6,7-dihydro-1H-imidazo[4,5-c]pyridin-5(4H)-yl)(4-(difluoromethyl)oxazol-5-yl)methanone], for which, for the setting “A375 R408W cells”, the AC50 is 500 to 1000 nM.
For the molecule `Cn1nc(C(F)F)nc1C(=O)N1CCc2[nH]cnc2[C@H]1c1nc2c(F)ccc(F)c2o1` [Example 486, (S)-(4-(4,7-difluorobenzo[d]oxazol-2-yl)-6,7-dihydro-1H-imidazo[4,5-c]pyridin-5(4H)-yl)(3-(difluoromethyl)-1-methyl-1H-1,2,4-triazol-5-yl)methanone], the AC50 (A375 R408W cells) is 500 to 1000 nM.
In the case of `O=C(c1cnn2cc(N3CCC(O)CC3)ccc12)N1CCc2[nH]cnc2[C@H]1c1nc2c(F)ccc(F)c2o1` [Example 895, (S)-(4-(4,7-difluorobenzo[d]oxazol-2-yl)-6,7-dihydro-1H-imidazo[4,5-c]pyridin-5(4H)-yl)(6-(4-hydroxypiperidin-1-yl)pyrazolo[1,5-a]pyridin-3-yl)methanone], where the note is “A375 R408W cells”, the AC50 fell in the range of 1000 to 5000 nM.
As for `Cn1cncc1-c1nnc(C(=O)N2CCc3[nH]cnc3C2c2nc3c(F)ccc(F)c3o2)o1` (centres unmarked), the AC50 under setting [1] was not below 5000 nM.
Regarding `Cc1nc([C@@H](C)O)oc1C(=O)N1CCc2[nH]cnc2[C@H]1c1nc2cccc(F)c2o1` [Example 217, ((S)-4-(7-fluorobenzo[d]oxazol-2-yl)-6,7-dihydro-1H-imidazo[4,5-c]pyridin-5(4H)-yl)(2-((R)-1-hydroxyethyl)-4-methyloxazol-5-yl)methanone], under “A375 R408W cells”, the AC50 is not above 500 nM.
On to `Cc1nc(-c2ccccn2)oc1C(=O)N1CCc2[nH]cnc2[C@H]1c1nc2cccc(F)c2o1` [Example 594, (S)-(4-(7-fluorobenzo[d]oxazol-2-yl)-6,7-dihydro-1H-imidazo[4,5-c]pyridin-5(4H)-yl)(4-methyl-2-(pyridin-2-yl)oxazol-5-yl)methanone], for which, where the note is “A375 R408W cells”, the AC50 was not above 500 nM.
As for `Cn1nc(C(F)(F)F)nc1C(=O)N1CCc2[nH]cnc2[C@H]1c1nc2ccccc2o1` [Example 683, (S)-(4-(benzo[d]oxazol-2-yl)-6,7-dihydro-1H-imidazo[4,5-c]pyridin-5(4H)-yl)(1-methyl-3-(trifluoromethyl)-1H-1,2,4-triazol-5-yl)methanone], the AC50 (A375 R408W cells) lay within 1000 to 5000 nM.
Regarding `O=C(c1ccnn1C(F)(F)F)N1CCc2[nH]cnc2[C@@H]1c1nc2ccc(F)cc2o1` [Example 288, (R)-(4-(6-fluorobenzo[d]oxazol-2-yl)-6,7-dihydro-1H-imidazo[4,5-c]pyridin-5(4H)-yl)(1-(trifluoromethyl)-1H-pyrazol-5-yl)methanone], for the setting “A375 R408W cells”, the AC50 lay in the range of 1000 to 5000 nM.
As to `Cn1cc(-c2nc(C(F)F)c(C(=O)N3CCc4[nH]cnc4[C@@H]3c3nc4cccc(F)c4o3)o2)cn1` [Example 635, (R)-(4-(difluoromethyl)-2-(1-methyl-1H-pyrazol-4-yl)oxazol-5-yl)(4-(7-fluorobenzo[d]oxazol-2-yl)-6,7-dihydro-1H-imidazo[4,5-c]pyridin-5(4H)-yl)methanone], the AC50 (A375 R408W cells) was in the range of 500 to 1000 nM.
Regarding `Cn1nc(C(C)(C)O)nc1C(=O)N1CCc2[nH]cnc2C1c1nc2cccc(F)c2o1` (centres unmarked), under setting [1], the AC50 fell in the range of 1000 to 5000 nM.
In the case of `Cn1ccc(-c2nnc(C(=O)N3CCc4[nH]cnc4[C@@H]3c3nc4c(F)cccc4o3)o2)n1` [Example 380, (R)-(4-(4-fluorobenzo[d]oxazol-2-yl)-1,4,6,7-tetrahydro-5H-imidazo[4,5-c]pyridin-5-yl)(5-(1-methyl-1H-pyrazol-3-yl)-1,3,4-oxadiazol-2-yl)methanone], the AC50 (A375 R408W cells) is 500 to 1000 nM.
On to `O=C(c1cnn2cc(CCN3CC(F)C3)ccc12)N1CCc2[nH]cnc2C1c1nc2cc(F)ccc2o1` (centres unmarked), for which the AC50 under setting [1] was not below 5000 nM.
Take `COc1cccc2oc([C@@H]3c4nc[nH]c4CCN3C(=O)c3nnc(-c4cnn(C)c4)o3)nc12` [Example 626, (S)-(4-(4-methoxybenzo[d]oxazol-2-yl)-6,7-dihydro-1H-imidazo[4,5-c]pyridin-5(4H)-yl)(5-(1-methyl-1H-pyrazol-4-yl)-1,3,4-oxadiazol-2-yl)methanone]: where the note is “A375 R408W cells”, the AC50 is not above 500 nM.
With `Cc1nc(C(=O)N2CCc3[nH]cnc3C2c2nc3ccccc3o2)n(C)n1` (centres unmarked), the AC50 under setting [1] lay within 1000 to 5000 nM.
For the molecule `Cc1ccc2oc([C@@H]3c4nc[nH]c4CCN3C(=O)c3nnc(-c4ccn(C(F)F)n4)o3)nc2c1` [Example 695, (S)-(5-(1-(difluoromethyl)-1H-pyrazol-3-yl)-1,3,4-oxadiazol-2-yl)(4-(5-methylbenzo[d]oxazol-2-yl)-6,7-dihydro-1H-imidazo[4,5-c]pyridin-5(4H)-yl)methanone], the AC50 (A375 R408W cells) was not above 500 nM.
Still for that read-out and setting: as for `O=C(c1cnco1)N1CCc2[nH]cnc2[C@H]1c1nc2cc(F)cc(F)c2o1` [Example 575, (S)-(4-(5,7-difluorobenzo[d]oxazol-2-yl)-6,7-dihydro-1H-imidazo[4,5-c]pyridin-5(4H)-yl)(oxazol-5-yl)methanone], the figure is 1000 to 5000 nM; as for `CC(C)(O)c1nc(C(F)(F)F)c(C(=O)N2CCc3[nH]cnc3[C@@H]2c2nc3ccc(F)cc3o2)o1` [Example 256, (R)-(4-(6-fluorobenzo[d]oxazol-2-yl)-6,7-dihydro-1H-imidazo[4,5-c]pyridin-5(4H)-yl)(2-(2-hydroxypropan-2-yl)-4-(trifluoromethyl)oxazol-5-yl)methanone], 1000 to 5000 nM; as for `Cn1nc(C(F)F)cc1C(=O)N1CCc2[nH]cnc2[C@H]1c1nc2ccccc2o1` [Example 731, (S)-(4-(benzo[d]oxazol-2-yl)-6,7-dihydro-1H-imidazo[4,5-c]pyridin-5(4H)-yl)(3-(difluoromethyl)-1-methyl-1H-pyrazol-5-yl)methanone], not above 500 nM.
With `O=C(c1nnc(-c2ccn(C(F)F)n2)o1)N1CCc2[nH]cnc2[C@H]1c1nc2ccccc2o1` [Example 846, (S)-(4-(benzo[d]oxazol-2-yl)-6,7-dihydro-1H-imidazo[4,5-c]pyridin-5(4H)-yl)(5-(1-(difluoromethyl)-1H-pyrazol-3-yl)-1,3,4-oxadiazol-2-yl)methanone], the AC50 (A375 R408W cells) was not above 500 nM.
On to `O=C(c1oc(-c2ccccn2)nc1C(F)F)N1CCc2[nH]cnc2[C@@H]1c1nc2cccc(F)c2o1` [Example 588, (R)-(4-(difluoromethyl)-2-(pyridin-2-yl)oxazol-5-yl)(4-(7-fluorobenzo[d]oxazol-2-yl)-6,7-dihydro-1H-imidazo[4,5-c]pyridin-5(4H)-yl)methanone], for which the AC50 (A375 R408W cells) is not above 500 nM.
For the molecule `CC(C)(O)c1nc(C(F)F)c(C(=O)N2CCc3[nH]cnc3[C@H]2c2nc3cc(Cl)ccc3o2)o1` [Example 375, (S)-(4-(5-chlorobenzo[d]oxazol-2-yl)-6,7-dihydro-1H-imidazo[4,5-c]pyridin-5(4H)-yl)(4-(difluoromethyl)-2-(2-hydroxypropan-2-yl)oxazol-5-yl)methanone], the AC50 (A375 R408W cells) was in the range of 500 to 1000 nM.
On to `Cn1nc(Cl)nc1C(=O)N1CCc2[nH]cnc2[C@H]1c1nc2c(F)cccc2o1` [Example 277, (S)-(3-chloro-1-methyl-1H-1,2,4-triazol-5-yl)(4-(4-fluorobenzo[d]oxazol-2-yl)-6,7-dihydro-1H-imidazo[4,5-c]pyridin-5(4H)-yl)methanone], for which, under “A375 R408W cells”, the AC50 was in the range of 500 to 1000 nM.
`O=C(c1cnn2cc(N3CCC(O)CC3)ccc12)N1CCc2[nH]cnc2C1c1nc2c(F)cccc2o1` (centres unmarked): the AC50 under setting [1] is not below 5000 nM.
As for `O=C(c1oc(-c2ccc(C(F)(F)F)cn2)nc1C(F)F)N1CCc2[nH]cnc2[C@@H]1c1nc2cc(F)ccc2o1` [Example 443, (R)-(4-(difluoromethyl)-2-(5-(trifluoromethyl)pyridin-2-yl)oxazol-5-yl)(4-(5-fluorobenzo[d]oxazol-2-yl)-6,7-dihydro-1H-imidazo[4,5-c]pyridin-5(4H)-yl)methanone], the AC50 (A375 R408W cells) is 500 to 1000 nM.
